This is an account of results in US10640492B2, “Tubulin inhibitor” (SHENZHEN NEPTUNUS PHARMACEUTICAL RESEARCH INSTITUTE CO., …, priority 2016, dated 2020).

The test system of data set [1] is drug-resistant MES-SA cells (p-glycoprotein induced). As to the kind of experiment: Inhibitory effect on tumor proliferation, drug-resistant MES-SA transplanted tumor. In kind it is in vivo. To be noted: drug-resistant MES-SA nude mice, dose that does not reduce body weight, vs blank vehicle (FIG. 1). On the procedure:
MES-SA cells (derived from ATCC) were cultured in low concentration of adriamycin for a long time to maintain sufficient cell viability and induced the expression of p-glycoprotein. After culturing for 10 months, the results of induced expression were detected by WB. After successful induction, the cells were cultured for one week in adriamycin-free medium. The tumor cells with adjusted concentration were inoculated into the armpit of nude mice. The transplanted tumors were treated with different drugs when they grew to a certain volume. Different doses of different drugs were administrated to blank mice to explore the drug dose not affecting the body weight of the animals, namely the dose to be administrated to treat the animals with transplanted tumors.

For data set [2], the system named is blood flow distribution in tissues and tumor tissue. As to the kind of experiment: Blood flow distribution of tissues and tumor. The class given is in vivo, nude mice. The following applies: two hours after administration, same pharmacodynamic dose, vs blank vehicle. The text has this: In this example, the effects of drugs on blood flow distribution of different tissues and organs at the same pharmacodynamic dose were simultaneously tested.

Data set [3] has as its system HT-1080 human fibrosarcoma cell strain.
Experimental: (§1) To test the cytotoxic IC50 values of 14 candidate compounds against 5 cell strains (MDA-MB-231, HT-1080, AGS, A-673 & HUVEC) using a CCK-8 test kit.
(§2) a) The compound was serially diluted with DMSO starting from 0.5 μM, using twice echelon dilution.
(§3) The logarithmic growth phase cells were collected and counted. The cells were re-suspended in complete medium, whose concentration was adjusted according to the test results of the cell density optimization, and then seeded into 96-well plates with 100 μl of the cell suspension to each well. The cells were incubated in a 37° C., 100% relative humidity, 5% CO2 incubator for 24 hours.
(§4) b) The test compound was diluted with the medium to the corresponding action concentrations set up, and added into the cells in the plates at 25 μl/well. The test compound was prepared in 9 final action concentrations, which were obtained by sequentially diluted from 500 nM using twice echelon dilution.
(§5) c) The cells were incubated in a 37° C., 100% relative humidity, 5% CO2 incubator for 72 hours.
(§6) d) The medium was removed from the cells, and a complete medium containing 10% CCK-8 was added and incubated in a 37° C. incubator for 1-4 hours.
(§7) e) After gentle shaking, the absorbance at 450 nm of the sample was measured on a SpectraMax M5 Microplate Reader, and the inhibition ratio was calculated using the absorbance at 650 nm as reference.
(§8) The inhibition ratio of the drug on tumor cell growth was calculated as follows: tumor cell growth inhibition %=[(Ac−As)/(Ac−Ab)]×100%
(§9) The IC50 curve was fitted and the IC50 value was calculated using the software Graphpad Prism 5 and using the calculation formula log(inhibitor) vs. normalized response-variable slope or log(inhibitor) vs. response-variable slope.
Data set [4] deals with AGS human gastric adenocarcinoma cell strain.
Experimental: AGS human gastric adenocarcinoma cell strain (purchased from Shanghai Cell Resource Center, Chinese Academy of Sciences)
as §2, §3, §4, §5, §6, §7, §8, §9
In data set [5] the test system is A-673 human rhabdomyosarcoma cell strain.
Experimental: as §1, §2, §3, §4, §5, §6, §7, §8, §9
The subject of data set [6] is HUVEC human umbilical vein endothelial cell strain.
Experimental: HUVEC human umbilical vein endothelial cell strain (purchased from ScienCell Research Laboratories, Cat #8000, Lot #11233)
as §2, §3, §4, §5, §6, §7, §8, §9
In data set [7] the test system is MDA-MB-231 human breast cancer cell strain.
Experimental: as §1
MDA-MB-231 human breast cancer cell strain (purchased from Shanghai Cell Resource Center, Chinese Academy of Sciences)
as §2, §3, §4, §5, §6, §7, §8, §9
Data set [8] deals with neutrophil count. To be noted: rat, in vivo.
Text: (§10) Multiple doses of different drugs were administrated to the nude mice respectively and the potency of the drugs in inhibiting the transplanted tumor in the nude mice was investigated. Base on the investigation, the equivalent dose of each drug was identified and converted to rat dose before administrated to the rats. That is, by administrating the rats with relatively equivalent pharmacodynamic dose, the effect of the drugs on the neutrophil count was examined. After continuously administration for two weeks, blood samples were collected and neutrophil counts were measured (FIG. 3).
Data set [9] in a line: Stability investigation (10-day accelerated stress testing).
Experimental: The tested conditions included 40° C., 60° C., humidity 75%, humidity 92.5%, and light. And under each condition, moisture, purity, maximum single impurity and total impurity of the compound tested were compared to that of day 0.
For data set [10], the system named is tumor cells inoculated in nude mice. The following applies: mouse, in vivo. The method, then:
The nude mice inoculated with tumor cells were administrated with blank vehicle, docetaxel, compound 17 as well as the combination drug of docetaxel and compound 17. The tumor volume was measured at different time period after the administration and the change of tumor volume was evaluated. At the same time, the change of body weight of the nude mice was examined to evaluate the antitumor effect and the toxicity degree of the drug. In addition, based on the above administration and grouping methods, the blood neutrophil count level for normal SD rats was measured before administration and after the final administration to evaluate the influence of the drug on neutrophil counts.

In data set [11] the test system is blood neutrophil count. As to the kind of experiment: Neutrophil count after compound 17 in combination with docetaxel. In kind it is in vivo. To be noted: normal SD rats, after final administration (FIG. 2C).
Data set [12] concerns neutrophil count. As to the kind of experiment: Effect on the neutrophil count at equivalent pharmacodynamic dose. The following applies: rats, continuous administration for two weeks (FIG. 3).
Text: as §10

Like-named read-outs stand apart in the source and are kept apart here.

For `C=CC(C)(C)c1[nH]cnc1/C=C1\NC(=O)[C@H](Cc2ccccc2)NC1=O` [(−)phenylahistin, reference compound], the “anti-tumor proliferation effect (tumor weight)” value in data set [1] is on record as “almost had no effect against tumor proliferation”. Besides, the “distribution of blood flow in tissues except tumor tissues” value in [2] is on record as “did not significantly affect the distribution of blood flow in tissues except tumor tissues”. Moreover, the “intratumoral blood flow distribution” value in [2] was “can significantly reduce the intratumoral blood flow distribution”. Further, the IC50 in data set [3], in data set [4], in data set [5], in data set [6] and in data set [7] was over 600 nM throughout. In addition, in data set [8], the neutrophil count entry is recorded as “significantly lower than blank vehicle group”. In addition, the Content is 97.86% in data set [9] (40° C., day 5); 98.36% in data set [9] (40° C., day 10); 95.77% in [9] (60° C., day 5); 93.45% in [9] (60° C., day 10); 99.37% in data set [9] (Day 0). In addition, the Maximum single impurity is 0.73 RRT: 0.58) % in [9] (40° C., day 5); 1.22 (RRT: 0.58) % in [9] (40° C., day 10); 2.84 (RRT: 0.24) % in data set [9] (60° C., day 5); 3.97 (RRT: 0.24) % in data set [9] (60° C., day 10); 0.39 (RRT: 0.58) % in data set [9] (Day 0).

Regarding `CC(=O)O[C@@]12CO[C@@H]1C[C@H](O)[C@@]1(C)C(=O)[C@H](O)C3=C(C)[C@@H](OC(=O)[C@H](O)[C@@H](NC(=O)OC(C)(C)C)c4ccccc4)C[C@@](O)([C@@H](OC(=O)c4ccccc4)[C@H]21)C3(C)C` [docetaxel, reference compound], in data set [1], the “anti-tumor proliferation effect (tumor weight)” value was “relatively poor pharmacodynamic effect”. Also, the “change of body weight (toxicity)” value in data set [10] is “weight loss of animals caused by the toxicity of docetaxel”. Further, the blood neutrophil count entry in data set [11] is given as “neutrophil count decrease caused by docetaxel”. In addition, the neutrophil count entry in [12] is recorded as “can significantly reduce the neutrophil count”.
